# In patent US20250170212A1, “COMPOSITIONS AND METHODS OF TREATING AMYOTROPHIC LATERAL SCLEROSIS (ALS) AND RELATED DISORDERS” (BIOINCEPT, LLC, priority 2022, published 2025):
# Columns and labels:
# [1] = test system: GFP+ mGRPs, GFAP+ astrocytes, OLIG2+ oligodendrocytes
# Protocol: Paraffin slides of the brain tissue after heated in 1 h in 60° C. were deparaffinized in: 1×10 min. Xylen I, 1×10 min Xylen II, 1×10 min EtOH 100%, 1×10 min EtOH 70%, 1×10 min EtOH 40%, 1×10 min dest. H2O. The target was retrieved in Citrate Buffer+Tween 20 (10 mM, pH=6.0) in a water bath for 20 minutes in 97° C. and then they were let cool down for another 20 minutes. Slides were washed in PBS three times and blocked 1 hour in 10% Goat serum+1% bovine albumin serum. All slides was incubated overnight at 4° C. with a first primary mouse Anti-GFP antibody 1:500 (Abcam Cat #ab1218, RRID: AB_298911). Washed three times with PBS, then secondary antibody Goat Anti-Mouse IgG H&L (Alexa Fluor® 488) in concentration 1:700 (Abcam Cat #ab 150117, RRID: AB_2688012) was applied for 40 min in RT. Then one part of the slides was washed three times in PBS and the second primary Rabbit Anti-GFAP antibody (Abcam Cat #ab7260, RRID: AB_305808) was applied 1:1000, incubated overnight at 4° C. After that the secondary antibody Goat Anti-Rabbit IgG H&L (Alexa Fluor® 594) (Abcam Cat #ab 150080, RRID: AB_2650602) was applied for 40 min RT in concentration 1:700. The second part of the slides was incubated with Rabbit Recombinant Anti-Olig2 antibody (Abcam Cat #ab109186, RRID: AB_10861310) 1:100 incubated overnight in 4° C. Next day the secondary antibody Goat Anti-Rabbit IgG H&L (Alexa Fluor® 594) (Abcam Cat #ab150080, RRID: AB_2650602) was applied for 40 min RT in 1:700 concentration. […] The slides were washed in PBS, mounted with DAKO mounting medium (Agilent Technologies, Santa Clara, CA, United States) and analyzed under Leica DM5500 fluorescent microscopy with LAS X software.
# [2] = test system: NeuN positive cells (mature neurons); assay: Immunohistochemistry of mature neurons in brainstem motor nuclei; type: in vivo, mouse; conditions: facial and hypoglossal motor nuclei; compared to Injury
# Protocol: At the end of experiment, mice were subjected to full body perfusion with 20% sucrose and 10% buffered formalin suitable for histology assays (Sigma Aldrich, St.Louis, MO, USA). Mice were decapitated and incubated in formalin for 24 h. Following the tissues (brain and spinal cord) were isolated, paraffin fixed for further analyses. After brain removal, the tissue was fixed in a formaldehyde solution (4%) for 2-4 hours at RT followed by 4° C. for a total time of 24-48 hours. Fixed tissues were embedded in paraffin and finally sectioned into 7 μm slices. […]
# Assessment of neuronal and microglial positive cells were performed in the region of interest (ROI). […] The images were analyzed and reconstructed using Image J (US National Institutes of Health).
# All quantifications were performed including the manual cell counts in a blinded manner. The NeuN and Ibal were counted as positive cells in the ROI (see above) as previously reported. The number of cells was determined by unbiased counting of positive cells. […] Differences between groups were analyzed using a repeated measure ANOVA model with a fixed effect for the group, of the time and a random intercept for the mouse. In a second, more explorative, approach for each group the time when the physical activity was first measured below a certain threshold was determined. […]
# [3] = whole cross section of the mouse diencephalon
sequence,measurement,setting,value
MVRIKPGSANKPSDD [sPIF],mGRPs progeny: GFP+ astrocytes and oligodendrocytes in brain parenchyma,"[1]; diencephalon, day 56",few GFP+ astrocytes and oligodendrocytes in the brain parenchyma
same,area of astrocytes (GFAP+),[1]; [3],significantly larger area of astrocytes
same,area of oligodendrocytes (OLIG2+),[1]; [3],larger area of oligodendrocytes
same,number of mature neurons (NeuN positive cells),[2],significant protection of neuronal cells
